≈ marks a conversion by molar mass, not a printed value.
Columns and labels:
[1] = system: Escherichia coli β7334 Δdeo tdk cdd::Tn10 pSUTrc (dck allele: none); format: cell-based; settings: strain β7334, dck allele none; 18 h 37° C., MS medium + IPTG
Description: (§1) The culture was then diluted 100 times in the same medium supplemented with IPTG and distributed on 96-well microplates in a final volume of 100 μl in a series of dilutions from to 2 to 2 nucleotide analogues. Each analogue was tested twice. After incubation for 18 hours at 37° C. with stirring, the MIC was determined as corresponding to the lowest analogue concentration for which no turbidity was detectable.
(§2) The toxicity of nucleoside analogues, deviating either by the sugar or by the base, was evaluated in strains of genotype Δdeo tdk cdd expressing on a plasmid the different dckH alleles, wild-type allele, D133E, R104Q and double mutant.
(§3) The minimum inhibitory concentrations, expressed in microM, were determined as indicated in the section Materials and Methods.

[2] = system: Escherichia coli β7338 Δdeo tdk cdd::Tn10 pSUDCK4 (dck:D133E-R104Q); format: cell-based; settings: strain β7338, dck allele D133E R104Q; 18 h 37° C., MS medium + IPTG
Description: as §1, §2, §3

[3] = system: Escherichia coli β7335 Δdeo tdk cdd::Tn10 pSUDCK1 (dck wt); format: cell-based; settings: for minimum inhibitory concentration (MIC): strain β7335, dck allele wt, 18 h 37° C., MS medium + IPTG
Description: (§4) The culture was then diluted 100 times in the same medium supplemented with IPTG and distributed on 96-well microplates in a final volume of 100 μl in a series of dilutions from to 2 to 2 nucleotide analogues. Each analogue was tested twice.
as §2, §3

[4] = system: Escherichia coli β7336 Δdeo tdk cdd::Tn10 pSUDCK2 (dck:D133E); format: cell-based; settings: strain β7336, dck allele D133E; 18 h 37° C., MS medium + IPTG
Description: as §4, §2, §3

[5] = system: Escherichia coli β7337 Δdeo tdk cdd::Tn10 pSUDCK3 (dck:R104Q); format: cell-based; settings: for minimum inhibitory concentration (MIC): strain β7337, dck allele R104Q, 18 h 37° C., MS medium + IPTG
Description: as §4, §2, §3

[6] = system: Escherichia coli β7339 Δdeo tdk cdd::Tn10 (dckH none, amkG wt); assay: microbe, parasite or virus in culture; format: cell-based; settings: strain β7339, dckH none, amkG wt
Description: as §1
(§5) We jointly expressed, within the genetic context Δdeo tdk cdd each of the four alleles of dckH with each of the two wt and T39A alleles of amkG, and tested the toxicity of the different nucleoside analogues already tested previously (Table 4 below).
as §3

[7] = system: Escherichia coli β7340 Δdeo tdk cdd::Tn10 (dckH wt, amkG wt); assay: microbe, parasite or virus in culture; format: cell-based; settings: strain β7340, dckH wt, amkG wt
Description: as §1, §5, §3

[8] = system: Escherichia coli β7341 Δdeo tdk cdd::Tn10 (dckH D133E, amkG wt); assay: microbe, parasite or virus in culture; format: cell-based; settings: strain β7341, dckH D133E, amkG wt
Description: as §1, §5, §3

[9] = system: Escherichia coli β7342 Δdeo tdk cdd::Tn10 (dckH R104Q, amkG wt); assay: microbe, parasite or virus in culture; format: cell-based; settings: strain β7342, dckH R104Q, amkG wt
Description: as §1, §5, §3

[10] = system: Escherichia coli β7343 Δdeo tdk cdd::Tn10 (dckH D133E R104Q, amkG wt); assay: microbe, parasite or virus in culture; format: cell-based; settings: strain β7343, dckH D133E R104Q, amkG wt
Description: as §1, §5, §3

[11] = system: Escherichia coli β7344 Δdeo tdk cdd::Tn10 (dckH none, amkG T39A); assay: microbe, parasite or virus in culture; format: cell-based; settings: strain β7344, dckH none, amkG T39A
Description: as §1, §5, §3

[12] = system: Escherichia coli β7345 Δdeo tdk cdd::Tn10 (dckH wt, amkG T39A); assay: microbe, parasite or virus in culture; format: cell-based; settings: strain β7345, dckH wt, amkG T39A
Description: as §1, §5, §3

[13] = system: Escherichia coli β7346 Δdeo tdk cdd::Tn10 (dckH D133E, amkG T39A); assay: microbe, parasite or virus in culture; format: cell-based; settings: strain β7346, dckH D133E, amkG T39A
Description: as §1, §5, §3

[14] = system: Escherichia coli β7347 Δdeo tdk cdd::Tn10 (dckH R104Q, amkG T39A); assay: microbe, parasite or virus in culture; format: cell-based; settings: strain β7347, dckH R104Q, amkG T39A
Description: as §1, §5, §3

[15] = system: Escherichia coli β7348 Δdeo tdk cdd::Tn10 (dckH D133E R104Q, amkG T39A); assay: microbe, parasite or virus in culture; format: cell-based; settings: strain β7348, dckH D133E R104Q, amkG T39A
Description: as §1, §5, §3

[16] = system: bacteria of genotype Δdeo tdk p::dckH+ (β7134 cells); assay: Selection of the DCK mutants in vivo (mutagenesis of dck gene by promutagenic nucleosides); format: cell-based, Escherichia coli
Description: Selection of the DCK mutants in vivo: a 12-hour culture of the β7134 cells in MS medium supplemented with 50 mg/l of carbenicillin was diluted 100 times in the same medium and cultured with aeration until turbidity of 0.100 (600 nm) was reached. The culture was then diluted 25 times in the same medium with or without IPTG and supplemented with variable concentrations (5 to 30 μM) of the promutagenic nucleoside analogues disoG and disoA then cultured with aeration for 18 hours. The cells were rinsed then plated on MH dishes supplemented with trimethoprim, thymidine and IPTG. Colonies appeared after incubation for 36 hours at 37° C. No colony was obtained in the absence of nucleoside analogue.
We took advantage of the conditional mutating property of DCK in the presence of promutagenic nucleoside analogues in order to subject its own dck gene to an episode of mutagenesis in vivo. Thus, bacteria of genotype Δdeo tdk p::dckH+ were exposed either to 2′-deoxy-iso-adenosine (disoA) or to 2′ deoxy-iso-guanosine (disoG), then incubated on solid rich medium in the presence of trimethoprim and thymidine. Colonies appeared following the administration of the two compounds at a frequency of the order of 10^−8. No colony survived in the absence of promutagenic nucleoside.
These alleles are designated dckH*. A plasmid combining the two mutations in the same allele, dckH**, was constructed and introduced into the strain β7117 of genotype Δdeo tdk. This allowed the complementation of the tdk mutation, thus also expressing a thymidine kinase activity. The different alleles selected are itemized in Table 2 below.

[17] = system: Escherichia coli strains of genotype Δdeo tdk cdd expressing the different dckH alleles; assay: MIC toxicity in strains Δdeo tdk cdd expressing any dckH allele; format: cell-based; settings: whatever the DCK allele
Description: as §1, §2

[18] = sequenced mutant plasmids obtained independently

Structure (SMILES) | minimum inhibitory concentration (MIC) [1] | minimum inhibitory concentration (MIC) [2] | minimum inhibitory concentration (MIC) [3] [µM] | minimum inhibitory concentration (MIC) [4] [µM] | minimum inhibitory concentration (MIC) [5] [µM] | minimum inhibitory concentration (MIC) [6] | minimum inhibitory concentration (MIC) [7] | minimum inhibitory concentration (MIC) [8] | minimum inhibitory concentration (MIC) [9] | minimum inhibitory concentration (MIC) [10] | minimum inhibitory concentration (MIC) [11] | minimum inhibitory concentration (MIC) [12] | minimum inhibitory concentration (MIC) [13] | minimum inhibitory concentration (MIC) [14] | minimum inhibitory concentration (MIC) [15] | other results
O=c1[nH]cnc2c1ncn2[C@H]1CC[C@@H](CO)O1 [ddI] | 80 µM | 40 µM | 40 | 40 | 20 | – | – | – | – | – | – | – | – | – | – | –
Nc1ncc2ncn([C@H]3C[C@H](O)[C@@H](CO)O3)c2n1 [disoA, 2-amino-9-(2′-deoxy-β-D-ribofuranosyl)purine] | > (no toxicity could be detected at the highest analogue concentration, 1.28 mM) | > (no toxicity could be detected at the highest analogue concentration, 1.28 mM) | – | 10 | – | > (no toxicity could be detected at the highest analogue concentration, 1280 microM) | > (no toxicity could be detected at the highest analogue concentration, 1280 microM) | > (no toxicity could be detected at the highest analogue concentration, 1280 microM) | > (no toxicity could be detected at the highest analogue concentration, 1280 microM) | 1280 µM (≈ 322 µg/mL) | > (no toxicity could be detected at the highest analogue concentration, 1280 microM) | > (no toxicity could be detected at the highest analogue concentration, 1280 microM) | 10 µM (≈ 2.51 µg/mL) | > (no toxicity could be detected at the highest analogue concentration, 1280 microM) | > (no toxicity could be detected at the highest analogue concentration, 1280 microM) | effect of the mutation on toxicity ([5]; mutation R104Q): no effect; frequency of colonies on solid rich medium with trimethoprim and thymidine after exposure ([16]; no colony in the absence of promutagenic nucleoside): ~10^−8; Frequency of mutation detected C → A, codon 133 GAC, Asp → Glu [16, 18]: 1/3; Frequency of mutation detected C → G, codon 133 GAC, Asp → Glu [16, 18]: 1/3; Frequency of mutation detected G → A, codon 133 CGA, Arg → Glu [16, 18]: 1/3
Nc1ncn([C@H]2C[C@H](O)[C@@H](CO)O2)c(=O)n1 [5-aza-dC, 5-aza-2′-deoxycitidine] | > (no toxicity could be detected at the highest analogue concentration, 1.28 mM) | 1.25 µM | – | – | – | > (no toxicity could be detected at the highest analogue concentration, 1280 microM) | ≦1.25 microM | ≦1.25 microM | ≦1.25 microM | ≦1.25 microM | > (no toxicity could be detected at the highest analogue concentration, 1280 microM) | ≦1.25 microM | ≦1.25 microM | ≦1.25 microM | ≦1.25 microM | MIC [17]: < 1.25 µM
Cc1cn([C@H]2C[C@H](N=[N+]=[N-])[C@@H](CO)O2)c(=O)[nH]c1=O [AZT, 3′-azido-3′dexoythymidine] | > (no toxicity could be detected at the highest analogue concentration, 1.28 mM) | 1280 µM | – | 640 | 640 | > (no toxicity could be detected at the highest analogue concentration, 1280 microM) | > (no toxicity could be detected at the highest analogue concentration, 1280 microM) | > (no toxicity could be detected at the highest analogue concentration, 1280 microM) | > (no toxicity could be detected at the highest analogue concentration, 1280 microM) | > (no toxicity could be detected at the highest analogue concentration, 1280 microM) | > (no toxicity could be detected at the highest analogue concentration, 1280 microM) | > (no toxicity could be detected at the highest analogue concentration, 1280 microM) | – | > (no toxicity could be detected at the highest analogue concentration, 1280 microM) | > (no toxicity could be detected at the highest analogue concentration, 1280 microM) | substrate of DCK wt (from toxicity tests of Table 3) ([3]; DCK wt): not a substrate
Nc1ncnc2c1ncn2[C@H]1CC[C@@H](CO)O1 [ddA] | 80 µM | 80 µM | 80 | 80 | 80 | – | – | – | – | – | – | – | – | – | – | –
Nc1ccn([C@@H]2O[C@H](CO)[C@@H](O)[C@@H]2O)c(=O)n1 [araC, arabinocytidine] | > (no toxicity could be detected at the highest analogue concentration, 1.28 mM) | 320 µM | 160 | 20 | 20 | – | – | – | – | – | – | – | – | – | – | –
NNc1ccn([C@H]2C[C@H](O)[C@@H](CO)O2)c(=O)n1 [amino-dC, N4-amino-2′-deoxycitidine] | > (no toxicity could be detected at the highest analogue concentration, 1.28 mM) | 20 µM | – | 20 | 2.5 | > (no toxicity could be detected at the highest analogue concentration, 1280 microM) | 80 µM (≈ 19.4 µg/mL) | > (no toxicity could be detected at the highest analogue concentration, 1280 microM) | ≦1.25 microM | 80 µM (≈ 19.4 µg/mL) | > (no toxicity could be detected at the highest analogue concentration, 1280 microM) | > (no toxicity could be detected at the highest analogue concentration, 1280 microM) | 640 µM (≈ 155 µg/mL) | 5 µM (≈ 1.21 µg/mL) | 320 µM (≈ 77.5 µg/mL) | –
